The target in experiment [1] is T1, Mac-1 (CD11b/CD18) (Homo sapiens, UniProt P05107+P11215).
T1 construct: methodology to isolate neutrophils from ethylenediaminetetraacetic acid (EDTA)-treated venous blood obtained from healthy human volunteers; endogenous in cells; host or cells: neutrophils (PMN) freshly isolated from venous blood of healthy human volunteers
Nature of the experiment: Human Neutrophil Mac-1 Adhesion Assay (PMN KLH). Format: cell-based. The note with it: human neutrophils, FMLP-stimulated, KLH coated plates. How it is done: Protocol for Human Neutrophil Mac-1 Adhesion Assay
We evaluated several 5-aryltriazol-3-thiones utilizing methodology similar to that of Ferrante and Thong as described in J. Immunol. […] Namely, we utilized Ferrante and Thong's methodology to isolate neutrophils from ethylenediaminetetraacetic acid (EDTA)-treated venous blood obtained from healthy human volunteers. Keyhole limpet hemocyanin (KLH) coated microtiter plates were prepared as follows:
All pipetting was automated using the Cetus Pro/Pette (Perkin-Elmer; division of Applied Biosystems, Foster, Calif.). KLH, Megathura crenulata; Calbiochem-Novabiochem, La Jolla, Calif., was prepared at a concentration of 0.5 mg/mL in Dulbecco's PBS phosphate buffered saline (PBS) with CA++, pH 7.2 (DPBS).
Microtiter plates are prewashed with 50% EtOH for 1 hour at 37° C., then drained and blotted to dryness. Then 0.3 mL KLH solution was pipetted into each well of the 96 well microtiter plate, covered and incubated overnight at 37° C. Plates are then inverted to drain, blotted to dryness, washed with 0.3 mL cold D-PBS, drained, blotted to dryness, then stored at 4° C. until use.
Procedure for PMN KLH (Mac-1 Adhesion Assay)
On the Pro/Pette system, a treatment plate was placed in plate position 1 (P-1), buffer Micro.trof was placed in plate position 2 (P-2), and a single row of tips in a spare magazine are placed in the tip position on the carriage. Two hundred ten μL aliquots D-PBS are pipetted into all wells (105 μL using Cetus File #18, Micro.trof 3, no mixes, tip row H, no tip change, run twice). Drug plate was placed in plate position 2 (P-2). Donor drug plates were prepared to contain buffer or drug in appropriate wells. Thirty μL drug or D-PBS buffer are pipetted into appropriate wells in the treatment plate in position 1 (P-1) (Cetus File #17, one mix before and after, changing tips) from donor plate. Thirty μL of neutrophils (PMNs) (30 μL of 10^7 cells/mL) were next pipetted from either a Micro.trof 1, position 2 (P-2), or a row of 0.5 mL capacity microcentrifuge tubes (Sarstedt RIA vials) to plate 1 using Cetus File #18, changing tips, one mix (50 μL) before and after. Cells and drug were then incubated for 10 minutes at 37° C. Agonist (e.g., FMLP) or D-PBS buffer (30 μL) were next pipetted to appropriate wells using Cetus File #18 (Micro.trof) or Cetus File #42 (for plate to plate), changing tips and one mix before and after. Cell/drug/agonist mixture was then incubated for 60 minutes at 37° C. After the incubation period, the treatment plate is gently inverted to drain, blotted lightly to dryness on a paper towel. The treatment plate is then washed with 300 μL D-PBS buffer using Cetus File #18, using pump at slow speed, again inverted to drain, and again blotted to dryness. Adherent cells are stained by the addition of 150 μL D-PBS buffer to all wells, using Cetus File #18, Micro.trof 3 no tip change. […] The treatment plate is then incubated overnight at 37° C.
After overnight incubation, the treatment plate is gently inverted to drain, blotted to dryness on paper towel, then gently washed with 300 μL D-PBS buffer using Cetus File #18, using pump at slow sped. The treatment plate is then gently inverted to drain, and blotted to dryness. The washing of the treatment plate is repeated until all excess dye is removed.
The treatment plate is then covered and incubated for 60 minutes at 37° C. After the incubation, 150 μL 50% EtOH is added to each well of the treatment plate using Cetus File #18, Micro.trof 3, mixing three times, changing tips. […]
a. mean unstimulated cell control OD is determined and subtracted from all other values b. mean net stimulated, e.g., FMLP, control values are determined c. mean drug values are determined and percent drug inhibition vs. stimulus control are calculated as follows: [formula] d. IC50 determinations, plotting logdose vs. percent inhibition, are determined by linear regression analysis using the least squares method.

The test system of experiment [2] is gastric damage (acidified aspirin). Nature of the experiment: Cytoprotection study: gastric damage by oral acidified aspirin. To be noted: Rattus norvegicus; 1 mg/kg PO, 15 min before oral acidified aspirin 288 mg/kg; female rats. Format: in vivo, Sprague-Dawley rats. How it is done: Protocol for Cytoprotection Studies
For all studies, random-bred, barrier-raised, SPF, female Sprague-Dawley rats (Charles River Laboratories, Portage, Mich.) weighing 180-300 g were used. Animals were acclimated for at least 1 week prior to the studies and housed in wire bottom cages supplied with macrofiltered fresh tap water and Purina Rat Chow #5012 (Purina Mills Inc., Richmond, Ind.) ad libitum. The animal rooms were kept at 22° C.±1° C. and 50% humidity.
All animals were food fasted for 24 hours and water deprived for 2 or more hours prior to treatment administration. For oral dosing, Aspirin (acetylsalicylic acid, Sigma, St. Louis, Mo.) was dissolved in an aqueous solution of 150 mM HCl (Takeucvhi K., Digestive Disease and Science, 35:178-185 (1990)). Misoprostol was used as a standard. The test compound was dissolved in double glass distilled water, normal saline USP (NS) or the misoprostol phosphate buffer vehicle. All oral doses of misoprostol and test compounds were administered in a volume of 1 mL/animal. All oral dosing was done by gavage using a 3 mL syringe attached to a […], 17 gauge gavage needle.
The test compounds were administered in 1 mL 15 minutes prior to treatment with an oral dose of acidified aspirin (288 mg/kg in 150 mM HCl) given in 1 mL. Stomachs were removed to assess gastric damage 30 minutes after exposure to the damaging agent. The stomach was isolated through a midline incision in the abdomen followed by clamping of the esophagus and duodenum. Seven milliliters of 10% formalin (Fisher Scientific, Fair Lawn, N.J.) was injected into the stomach which was then excised and submerged in formalin for at least 10 minutes. The stomach was then opened along the greater curvature and pinned flat and submerged in formalin overnight. After the forestomach and exterior blood vessels were trimmed away, the tissues were clarified with glycerol (E. M. Science, Gibbstown, N.J.) and flattened between Plexiglass plates. Gastric damage was measured with a Cambridge Instruments LTD., (Cambridge, UK) Quantimet 970 Image Analysis System. Hemorrhagic damage appeared as darkened areas on a background of lighter undamaged tissue. This darker area was detected and surface area measured by the image analyzer. In addition, the complete stomachs were also completely submerged in 0.1N solution of iodine (J. T. Baker Chemical Co., Phillipsburg, N.J.), and the total stomach surface area was determined. The system was calibrated prior to each use with a standard sample. The percent damage and percent protection was computed by the following equation: [formula]

One may read the IC50 as the concentration needed to halve the response being measured. Broadly, the inhibition is the change of the read-out against control, counted positive when it falls. Broadly, the inhibition in vivo is the share of the control response that was lost under treatment. A higher inhibition in vivo goes with strong suppression.

T1 sequence (P05107 23-769, other chains not shown): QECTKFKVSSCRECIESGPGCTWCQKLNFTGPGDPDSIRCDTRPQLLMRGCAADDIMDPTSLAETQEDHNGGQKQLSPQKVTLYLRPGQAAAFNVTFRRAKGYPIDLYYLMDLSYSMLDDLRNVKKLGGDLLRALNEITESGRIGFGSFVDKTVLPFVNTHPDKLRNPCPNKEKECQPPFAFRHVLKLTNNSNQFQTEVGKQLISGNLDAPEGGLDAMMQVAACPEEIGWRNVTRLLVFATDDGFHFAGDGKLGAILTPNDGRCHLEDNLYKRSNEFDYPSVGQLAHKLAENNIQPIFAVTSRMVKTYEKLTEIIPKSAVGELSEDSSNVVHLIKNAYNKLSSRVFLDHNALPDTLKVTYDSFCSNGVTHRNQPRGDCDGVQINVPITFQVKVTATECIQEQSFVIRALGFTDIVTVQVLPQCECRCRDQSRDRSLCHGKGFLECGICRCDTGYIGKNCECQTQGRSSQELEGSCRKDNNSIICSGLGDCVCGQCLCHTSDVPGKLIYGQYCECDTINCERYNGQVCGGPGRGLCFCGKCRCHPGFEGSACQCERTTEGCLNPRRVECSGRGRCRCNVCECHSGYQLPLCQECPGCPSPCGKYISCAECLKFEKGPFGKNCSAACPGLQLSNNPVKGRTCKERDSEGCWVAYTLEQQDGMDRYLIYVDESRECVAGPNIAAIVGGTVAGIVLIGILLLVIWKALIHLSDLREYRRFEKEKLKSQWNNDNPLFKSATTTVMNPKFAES

In the case of `COc1ccc(-c2n[nH]c(=S)n2-c2ccccc2)cc1OC` [Example 26, 5-(3,4-dimethoxyphenyl)-2,4-dihydro-4-phenyl-3H-1,2,4-triazol-3-thione], the 50% inhibitory concentration (IC50) in experiment [1] amounted to 800 nM.
For `CCn1c(-c2ccc(N)cc2)n[nH]c1=S` [Example 2, 5-(4-aminophenyl)-4-ethyl-2,4-dihydro-[1,2,4]triazol-3-thione], the inhibition at 33 µM in experiment [1] worked out at 36.9%.
Turning to `COc1cccc(-c2n[nH]c(=S)n2-c2ccccc2)c1` [Example 28, 5-(3-methoxyphenyl)-2,4-dihydro-4-phenyl-3H-[1,2,4]-triazol-3-thione], in experiment [1], the inhibition at 33 µM was found to be 60%.
Turning to `Nc1ccc(-c2n[nH]c(=S)n2-c2ccccc2)cc1` [Example 31, 5-(4-aminophenyl)-2,4-dihydro-4-phenyl-3H-[1,2,4]-triazol-3-thione], in experiment [1], the inhibition at 33 µM came to 15%.
In turn, `Cc1ccccc1-c1n[nH]c(=S)n1-c1ccccc1` [Example 22, 5-(2-methylphenyl)-2,4-dihydro-4-phenyl-3H-[1,2,4]-triazol-3-thione] showed an IC50 in experiment [1] of 200 nM.
Consider `Nc1ccccc1-c1n[nH]c(=S)n1-c1ccccc1` [Example 35, 5-(aminophenyl)-2,4-dihydro-4-phenyl-3H-[1,2,4]-triazol-3-thione], for which, in experiment [1], the inhibition at 33 µM came out at 24%.
The compound `CCn1c(-c2ccc(OC)c(OC)c2)n[nH]c1=S` [Example 16, 5-(3,4-dimethoxyphenyl)-4-ethyl-2,4-dihydro-[1,2,4]triazol-3-thione] displayed an IC50 in experiment [1] of 3100 nM. Moreover, at 1 mg/kg the inhibition in vivo in experiment [2] was 62.2%.
On to `S=c1nc(-c2ccccc2)[nH][nH]1` [Example 34, 1,2-dihydro-5-phenyl-3H-[1,2,4]-triazol-3-thione], for which the inhibition at 33 µM in experiment [1] stood at 58%.
`CCn1c(-c2ccc(O)cc2)n[nH]c1=S` [Example 4, 5-(4-hydroxyphenyl)-4-ethyl-2,4-dihydro-[1,2,4]triazol-3-thione] had an IC50 in experiment [1] of 7800 nM.
For `Nc1ccccc1-c1n[nH]c(=S)n1N` [Example 39, 4-Amino-5-(2-aminophenyl)-2,4-dihydro-3H-[1,2,4]triazol-3-thione], the inhibition at 33 µM in experiment [1] was 57%.
The same measure, in the same setting: with `Oc1ccc(-c2n[nH]c(=S)n2-c2ccccc2)cc1` [Example 27, 5-(4-hydroxyphenyl)-2,4-dihydro-4-phenyl-3H-[1,2,4]-triazol-3-thione] the figure was 6%.
Compound `COc1ccc(-c2n[nH]c(=S)n2-c2ccccc2)cc1` [Example 33, 5-(4-methoxyphenyl)-2,4-dihydro-4-phenyl-3H-[1,2,4]-triazol-3-thione] registered an IC50 in experiment [1] of 4100 nM.
As for `CNc1ccccc1-c1n[nH]c(=S)n1-c1ccccc1` [Example 37, 5-(2-methylaminophenyl)-4-phenyl-2,4-dihydro-[1,2,4]triazol-3-thione], in experiment [1], the inhibition at 33 µM turned out to be 7%.
With `Cn1c(-c2ccccc2N)n[nH]c1=S` [Example 38, 5-(2-Aminophenyl)-2,4-dihydro-4-methyl-4H-[1,2,4]triazol-3-thione], in experiment [1], the inhibition at 33 µM was -0.1%. Moreover, in experiment [2], the inhibition in vivo at 1 mg/kg was 51.2%.
For `CCn1c(S)nnc1-c1ccccc1O` [Example 5, 5-(2-hydroxyphenyl)-4-ethyl-2,4-dihydro-[1,2,4]triazol-3-thione], in experiment [1], the IC50 stood at 4300 nM.
In turn, `CCn1c(-c2ccc(OC)cc2)n[nH]c1=S` [Example 11, 5-(4-methoxyphenyl)-4-ethyl-2,4-dihydro-[1,2,4]triazol-3-thione] yielded an IC50 in experiment [1] of 1600 nM. Further, the inhibition in vivo at 1 mg/kg in experiment [2] came to 32.2%.
Consider `CCn1c(-c2ccccc2N)n[nH]c1=S` [Example 36, 5-(2-aminophenyl)-4-ethyl-2,4-dihydro-[1,2,4]triazol-3-thione], for which the IC50 in experiment [1] is 400 nM. In experiment [2], this compound returned an inhibition in vivo at 1 mg/kg of 53.7%.
The compound `CCn1c(-c2cc(OC)c(OC)cc2N)n[nH]c1=S` [Example 7, 5-(2-amino-4,5-dimethoxyphenyl)-4-ethyl-2,4-dihydro-[1,2,4]triazol-3-thione] registered an IC50 in experiment [1] of 7100 nM.
In experiment [1], `CCn1c(-c2ccc(Cl)cc2Cl)n[nH]c1=S` [Example 12, 5-(2,4-chlorophenyl)-4-ethyl-2,4-dihydro-[1,2,4]triazol-3-thione] yielded an IC50 of 2100 nM. In experiment [2], this compound returned an inhibition in vivo at 1 mg/kg of 59.4%.
Taken in the same sequence, the figures for `CCn1c(-c2cc(Cl)ccc2N)n[nH]c1=S` [Example 6, 5-(2-amino-5-chlorophenyl)-4-ethyl-2,4-dihydro-[1,2,4]triazol-3-thione] were 800 nM and 55.1%.
With `COc1ccc(-c2n[nH]c(=S)n2C)cc1OC` [Example 32, 5-(3,4-dimethoxyphenyl)-2,4-dihydro-4-methyl-3H-[1,2,4]-triazol-3-thione], in experiment [1], the IC50 amounted to 1500 nM. The compound also registered an inhibition in vivo at 1 mg/kg in experiment [2] of 21.6%.
Turning to `COc1ccccc1-c1n[nH]c(=S)n1-c1ccccc1` [Example 24, 5-(2-methoxyphenyl)-2,4-dihydro-4-phenyl-3H-[1,2,4]-triazol-3-thione], the IC50 in experiment [1] came out at 2500 nM.
In experiment [1], `Sc1nnc(-c2ccccc2)n1-c1ccccc1` [Example 23, 2,4-dihydro-4,5-diphenyl-3H-[1,2,4]-triazol-3-thione] registered an IC50 of 1100 nM. Besides, the inhibition in vivo at 1 mg/kg in experiment [2] was found to be 21.4%.
Regarding `Oc1ccc(-c2n[nH]c(=S)n2Cc2ccccc2)cc1` [Example 29, 5-(4-hydroxyphenyl)-2,4-dihydro-4-phenylmethyl-3H-[1,2,4]-triazol-3-thione], in experiment [1], the inhibition at 33 µM worked out at 42%.
For the compound `Sc1nnc(-c2ccccc2)n1Cc1ccccc1` [Example 25, 2,4-dihydro-5-phenyl-4-(phenylmethyl)-3H-[1,2,4]-triazol-3-thione], the IC50 in experiment [1] stood at 8100 nM.
